Key:
Type in all cases: in vivo
[1] = test system: ragweed (common ragweed, Ambrosia elatior); experiment: Test F pre-/postemergence: ragweed; conditions: Preemergence
Excerpt: (§1) Seeds of plant species selected from corn (Zea mays), soybean (Glycine max), velvetleaf (Abutilon theophrasti), lambsquarters (Chenopodium album), poinsettia, wild (wild poinsettia, Euphorbia heterophylla), pigweed, palmer (palmer pigweed, Amaranthus palmeri), waterhemp (common waterhemp, Amaranthus rudis), surinam grass (Brachiaria decumbens), crabgrass, Brazil (Brazilian crabgrass, Digitaria horizontalis), panicum, fall (fall panicum Panicum dichotomiflorum), crabgrass, large (large crabgrass, Digitaria sanguinalis), foxtail, giant (giant foxtail, Setaria faberii), foxtail, green (green foxtail Setaria viridis), goosegrass (Eleusine indica), ragweed (common ragweed, Ambrosia elatior), barnyardgrass (Echinochloa crus-galli), sandbur (southern sandbur, Cenchrus echinatus), arrowleaf sida (Sida rhombifolia), ryegrass, Italian (Italian ryegrass, Lolium multiflorum), dayflower, VA (Virginia (VA) dayflower, Commelina virginica), field bindweed (Convolvulus arvensis), cocklebur (common cocklebur, Xanthium strumarium), morningglory (Ipomoea coccinea), nightshade (eastern black nightshade, Solanum ptycanthum), kochia (Kochia scoparia), nutsedge, yellow (yellow nutsedge, Cyperus esculentus), johnsongrass (Sorghum halepense), smartweed (ladysthumb smartweed, Polygonum persicaria), and beggarticks (hairy beggarticks, Bidens pilosa), were planted into a silt loam soil and treated preemergence with test chemicals formulated in a non-phytotoxic solvent mixture which included a surfactant. At the same time, plants selected from these crop and weed species and also pigweed (Amaranthus retroflexus), waterhemp_RES1 (ALS/Triazine resistant common waterhemp, Amaranthus rudis) and waterhemp_RES2 (ALS/HPPD resistant common waterhemp, Amaranthus rudis) were planted in pots containing a planting medium comprising spaghnum peat moss, vermiculite, wetting agent and starter nutrients treated with postemergence applications of some of the test chemicals formulated in the same manner. Plants ranged in height from 2 to 18 cm for postemergence treatments (1- to 4-leaf stage).
(§2) Treated plants and controls were maintained in a greenhouse for 14 to 21 days, after which time all species were compared to controls and visually evaluated. Plant response ratings, summarized in Table E, are based on a scale of 0 to 100 where 0 is no effect and 100 is complete control. A dash (-) response means no test result.

[2] = test system: pigweed (Amaranthus retroflexus); experiment: Test D pre-/postemergence: pigweed
Summary of the method: (§3)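 Species were sown in silt loam and sprayed preemergence, or grown in peat/vermiculite medium and sprayed postemergence at the 1- to 4-leaf stage (2–18 cm), with compounds in a surfactant-containing solvent. Injury was visually rated against untreated controls after 14–21 days, on a 0 (no effect) to 100 (complete control) scale.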

[3] = test system: ryegrass, Italian (Italian ryegrass, Lolium multiflorum); experiment: Test F pre-/postemergence: ryegrass, Italian; conditions: Preemergence
Summary of the method: (§4)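 Preemergence treatment of seeds sown in silt loam soil, and postemergence treatment of plants 2–18 cm tall (1- to 4-leaf stage), with compounds in non-phytotoxic solvent plus surfactant. Greenhouse 14–21 days, then visual rating versus controls on 0–100 scale (100 = complete control).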

[4] = test system: lambsquarters (Chenopodium album); experiment: Test D pre-/postemergence: lambsquarters
Summary of the method: as §3

[5] = test system: wheat, winter (winter wheat, Triticum aestivum); experiment: Test D pre-/postemergence: wheat, winter
Summary of the method: as §3

[6] = test system: nightshade (eastern black nightshade, Solanum ptycanthum); experiment: Test F pre-/postemergence: nightshade; conditions: Preemergence
Summary of the method: as §4

soybean (Glycine max) = experiment: Test F pre-/postemergence: soybean; conditions: Preemergence
Summary of the method: as §4

[7] = test system: oat, wild (wild oat, Avena fatua); experiment: Test D pre-/postemergence: oat, wild
Summary of the method: as §3

[8] = test system: sandbur (southern sandbur, Cenchrus echinatus); experiment: Test F pre-/postemergence: sandbur; conditions: Preemergence
Summary of the method: as §4

[9] = test system: velvetleaf (Abutilon theophrasti); experiment: Test F pre-/postemergence: velvetleaf; conditions: Preemergence
Excerpt: as §1, §2

[10] = 16 g ai/ha, scale 0 to 100, 0 no effect, 100 complete control
[11] = 31 g ai/ha, scale 0 to 100, 0 no effect, 100 complete control
[12] = Postemergence, 31 g ai/ha, scale 0 to 100 (0 no effect, 100 complete control)
[13] = Postemergence, 62 g ai/ha, scale 0 to 100 (0 no effect, 100 complete control)
[14] = Postemergence, 125 g ai/ha, scale 0 to 100, 0 no effect, 100 complete control
[15] = Postemergence, 16 g ai/ha, scale 0 to 100
[16] = Preemergence, 16 g ai/ha, scale 0 to 100, 0 no effect, 100 complete control
[17] = Preemergence, 31 g ai/ha, scale 0 to 100, 0 no effect, 100 complete control
[18] = Preemergence, 62 g ai/ha, scale 0 to 100
[19] = Preemergence, 125 g ai/ha, scale 0 to 100

Cc1nn(-c2ccc(C(F)(F)F)c(F)c2)nc1Oc1ccnc(C(F)(F)F)c1 [Compound 148]
Plant response rating, Ragweed [1, 10]: 0 | Plant response rating, Ragweed [1, 11]: 0 | Plant response rating, Ragweed ([1]; 125 g ai/ha, scale 0 to 100): 75 | Plant response rating, Ragweed ([1]; 250 g ai/ha, scale 0 to 100): 75 | Plant response rating: Pigweed [2, 12]: 85 | Plant response rating: Pigweed [2, 13]: 95 | Plant response rating: Pigweed [2, 14]: 95 | Plant response rating, Pigweed [2, 15]: 70 | Plant response rating, Pigweed [2, 16]: 15 | Plant response rating, Pigweed [2, 17]: 70 | Plant response rating, Pigweed [2, 18]: 85 | Plant response rating, Pigweed [2, 19]: 100 | Plant response rating, Ryegrass, Italian [3, 10]: 0 | Plant response rating, Ryegrass, Italian [3, 11]: 0 | Plant response rating, Ryegrass, Italian ([3]; 125 g ai/ha, scale 0 to 100): 95 | Plant response rating, Ryegrass, Italian ([3]; 250 g ai/ha, scale 0 to 100): 100 | Plant response rating: Lambsquarters [4, 12]: 85 | Plant response rating: Lambsquarters [4, 13]: 95 | Plant response rating: Lambsquarters [4, 14]: 95 | Plant response rating, Lambsquarters [4, 15]: 85 | Plant response rating, Lambsquarters [4, 16]: 35 | Plant response rating, Lambsquarters [4, 17]: 40 | Plant response rating, Lambsquarters [4, 18]: 80 | Plant response rating, Lambsquarters [4, 19]: 90 | Plant response rating: Wheat, Winter [5, 12]: 10 | Plant response rating: Wheat, Winter [5, 13]: 15 | Plant response rating: Wheat, Winter [5, 14]: 25 | Plant response rating, Wheat, Winter [5, 15]: 10 | Plant response rating, Wheat, Winter [5, 16]: 0 | Plant response rating, Wheat, Winter [5, 17]: 5 | Plant response rating, Wheat, Winter [5, 18]: 0 | Plant response rating, Wheat, Winter [5, 19]: 10 | Plant response rating, Nightshade [6, 10]: 0 | Plant response rating, Nightshade [6, 11]: 0 | Plant response rating, Nightshade ([6]; 125 g ai/ha, scale 0 to 100): 98 | Plant response rating, Nightshade ([6]; 250 g ai/ha, scale 0 to 100): 98 | Plant response rating, Soybean (soybean (Glycine max); [10]): 0 | Plant response rating, Soybean (soybean (Glycine max); [11]): 0 | Plant response rating, Soybean (soybean (Glycine max); 125 g ai/ha, scale 0 to 100): 20 | Plant response rating, Soybean (soybean (Glycine max); 250 g ai/ha, scale 0 to 100): 40 | Plant response rating: Oat, Wild [7, 12]: 15 | Plant response rating: Oat, Wild [7, 13]: 30 | Plant response rating: Oat, Wild [7, 14]: 55 | Plant response rating, Oat, Wild [7, 15]: 5 | Plant response rating, Oat, Wild [7, 16]: 5 | Plant response rating, Oat, Wild [7, 17]: 20 | Plant response rating, Oat, Wild [7, 18]: 30 | Plant response rating, Oat, Wild [7, 19]: 65 | Plant response rating, Sandbur [8, 10]: 0 | Plant response rating, Sandbur [8, 11]: 0 | Plant response rating, Sandbur ([8]; 125 g ai/ha, scale 0 to 100): 70 | Plant response rating, Sandbur ([8]; 250 g ai/ha, scale 0 to 100): 100 | Plant response rating, Velvetleaf [9, 10]: 0 | Plant response rating, Velvetleaf [9, 11]: 0 | Plant response rating, Velvetleaf ([9]; 125 g ai/ha, scale 0 to 100): 25 | Plant response rating, Velvetleaf ([9]; 250 g ai/ha, scale 0 to 100): 65

CCc1nn(-c2ccc(C(F)(F)F)cc2)nc1Cc1ccnc(C(F)(F)F)c1 [Compound 155]
Plant response rating, Ragweed ([1]; 125 g ai/ha, scale 0 to 100): 50 | Plant response rating, Ragweed ([1]; 250 g ai/ha, scale 0 to 100): 80 | Plant response rating: Pigweed [2, 12]: 75 | Plant response rating: Pigweed [2, 13]: 95 | Plant response rating: Pigweed [2, 14]: 95 | Plant response rating, Pigweed [2, 15]: 70 | Plant response rating, Pigweed [2, 16]: 60 | Plant response rating, Pigweed [2, 17]: 80 | Plant response rating, Pigweed [2, 18]: 100 | Plant response rating, Pigweed [2, 19]: 100 | Plant response rating, Ryegrass, Italian ([3]; 125 g ai/ha, scale 0 to 100): 85 | Plant response rating, Ryegrass, Italian ([3]; 250 g ai/ha, scale 0 to 100): 95 | Plant response rating: Lambsquarters [4, 12]: 95 | Plant response rating: Lambsquarters [4, 13]: 90 | Plant response rating: Lambsquarters [4, 14]: 95 | Plant response rating, Lambsquarters [4, 15]: 95 | Plant response rating, Lambsquarters [4, 16]: 20 | Plant response rating, Lambsquarters [4, 17]: 55 | Plant response rating, Lambsquarters [4, 18]: 90 | Plant response rating, Lambsquarters [4, 19]: 90 | Plant response rating: Wheat, Winter [5, 12]: 10 | Plant response rating: Wheat, Winter [5, 13]: 15 | Plant response rating: Wheat, Winter [5, 14]: 25 | Plant response rating, Wheat, Winter [5, 15]: 5 | Plant response rating, Wheat, Winter [5, 16]: 0 | Plant response rating, Wheat, Winter [5, 17]: 0 | Plant response rating, Wheat, Winter [5, 18]: 5 | Plant response rating, Wheat, Winter [5, 19]: 5 | Plant response rating, Nightshade ([6]; 125 g ai/ha, scale 0 to 100): 100 | Plant response rating, Nightshade ([6]; 250 g ai/ha, scale 0 to 100): 100 | Plant response rating, Soybean (soybean (Glycine max); 125 g ai/ha, scale 0 to 100): 30 | Plant response rating, Soybean (soybean (Glycine max); 250 g ai/ha, scale 0 to 100): 30 | Plant response rating: Oat, Wild [7, 12]: 20 | Plant response rating: Oat, Wild [7, 13]: 55 | Plant response rating: Oat, Wild [7, 14]: 75 | Plant response rating, Oat, Wild [7, 15]: 10 | Plant response rating, Oat, Wild [7, 16]: 5 | Plant response rating, Oat, Wild [7, 17]: 50 | Plant response rating, Oat, Wild [7, 18]: 15 | Plant response rating, Oat, Wild [7, 19]: 60 | Plant response rating, Sandbur ([8]; 125 g ai/ha, scale 0 to 100): 100 | Plant response rating, Sandbur ([8]; 250 g ai/ha, scale 0 to 100): 100 | Plant response rating, Velvetleaf ([9]; 125 g ai/ha, scale 0 to 100): 98 | Plant response rating, Velvetleaf ([9]; 250 g ai/ha, scale 0 to 100): 98

Reference: patent US9302999B2, “Substituted triazoles as herbicides” (E. I. DU PONT DE NEMOURS AND COMPANY, priority 2012, dated 2016)
